The source of these data is ChEMBL document CHEMBL4706576, “Tricyclic heterocycles display diverse sensitivity to the A147T TSPO polymorphism” (Eur J Med Chem, 2020).

A word on the Ki: it is a dissociation constant, usually derived from enzyme kinetics or from competition with a known ligand.

One assay has as its target Translocator protein (Homo sapiens, UniProt P30536). Description: Displacement of [3H]-PK11195 from wild type TSPO (unknown origin) expressed in human HEK293T cells assessed as inhibitory constant incubated for 90 mins by microbeta scintillation counting method. The class given is cell-based.
The species named for a further assay is Homo sapiens. Kind of assay: Selectivity index, ratio of Ki for TSPO A147T mutant (unknown origin) to Ki for wild type TSPO (unknown origin).

Translocator protein, sequence (P30536 whole entry): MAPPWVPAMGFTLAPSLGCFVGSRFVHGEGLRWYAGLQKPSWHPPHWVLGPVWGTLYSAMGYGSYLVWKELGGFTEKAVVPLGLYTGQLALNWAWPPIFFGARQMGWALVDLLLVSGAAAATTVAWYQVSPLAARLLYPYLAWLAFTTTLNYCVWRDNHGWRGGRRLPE

On to `CN(Cc1ccccc1)C(=O)CN1Cc2cnn(C)c2Nc2ccccc21`, for which, on Translocator protein, the Ki amounted to 41.3 nM. In addition, in the assay listed under Homo sapiens, the Ratio Ki was determined as 4.8.

For `CCN(Cc1ccccc1)C(=O)Cc1c(-c2ccc(OC)cc2)nn2c(C)cc(C)nc12`, the Ki at Translocator protein was 6.2 nM. Moreover, the Ratio Ki in the assay listed under Homo sapiens worked out at 13.

For the compound `CN(C)C(=O)CN1c2ccccc2NC(=O)c2ccccc21`, the Ki on Translocator protein is > 10000 nM.

Regarding `CCN(Cc1ccccc1)C(=O)CN1c2ccccc2NC(=O)c2ccccc21`, at Translocator protein, the inhibition constant Ki turned out to be 15.8 nM. Moreover, the Ratio Ki in the assay filed under Homo sapiens came out at 6.2.

For the compound `CN(Cc1ccccc1)C(=O)Cn1c2ccccc2c2ccccc21`, the Ratio Ki in the assay filed under Homo sapiens was found to be 2.5.

For the compound `CN(C)C(=O)CN1Cc2cnn(C)c2Nc2ccccc21`, the inhibitory constant (Ki) at Translocator protein was > 10000 nM.

On to `COc1ccc(-c2nn3c(C)cc(C)nc3c2CC(=O)N(C)Cc2ccccc2)cc1`, for which, at Translocator protein, the Ki was determined as 9.3 nM. Further, the Ratio Ki in the assay filed under Homo sapiens amounted to 2.9.

On to `CCN(CC)C(=O)CN1Cc2cnn(C)c2Nc2ccccc21`, for which the Ki at Translocator protein was found to be 493 nM. Further, the Ratio Ki in the assay listed under Homo sapiens was 4.6.

For the compound `CCN(Cc1ccccc1)C(=O)CN1Cc2cnn(C)c2Nc2ccccc21`, the Ki at Translocator protein is 41.3 nM. Further, the Ratio Ki in the assay listed under Homo sapiens was determined as 5.5.

For the compound `CCN(CC)C(=O)Cn1c2ccccc2c2ccccc21`, in the assay filed under Homo sapiens, the Ratio Ki was 5.9.

Turning to `CN(Cc1ccccc1)C(=O)CN1c2ccccc2NC(=O)c2ccccc21`, the Ki at Translocator protein came to 76.8 nM. Moreover, in the assay filed under Homo sapiens, the Ratio Ki amounted to 2.1.

For the compound `CCN(CC)C(=O)CN1c2ccccc2NC(=O)c2ccccc21`, the Ki on Translocator protein was determined as 200 nM. Besides, the Ratio Ki in the assay listed under Homo sapiens stood at 11.8.

`CCN(Cc1ccccc1)C(=O)Cn1c2ccccc2c2ccccc21`: in the assay filed under Homo sapiens, the Ratio Ki is 5.

`COc1ccc(-c2nn3c(C)cc(C)nc3c2CC(=O)N(C)C)cc1`: the Ki at Translocator protein is 338 nM. Moreover, the Ratio Ki in the assay listed under Homo sapiens turned out to be 1.7.
